Measured values as given in US20230416248A1, “COMPOUNDS AND USES THEREOF” (Foghorn Therapeutics Inc., priority 2020, published 2023).
Like-named read-outs stand apart in the source and are kept apart here.

Key:
BRM = biological target: T1, BRM (Homo sapiens, UniProt P51531); assay: ATPase catalytic activity of BRM, ADP-Glo in vitro biochemical assay; conditions: for IC50: 30 nM BRM, 400 μM ATP; for Ratio* (BRG1 IC50 (μM) divided by BRM IC50 (μM)): selectivity ratio BRG1 IC50 / BRM IC50
T1 construct: made in house; host or cells: High Five insect cells
T1 sequence (P51531 whole entry): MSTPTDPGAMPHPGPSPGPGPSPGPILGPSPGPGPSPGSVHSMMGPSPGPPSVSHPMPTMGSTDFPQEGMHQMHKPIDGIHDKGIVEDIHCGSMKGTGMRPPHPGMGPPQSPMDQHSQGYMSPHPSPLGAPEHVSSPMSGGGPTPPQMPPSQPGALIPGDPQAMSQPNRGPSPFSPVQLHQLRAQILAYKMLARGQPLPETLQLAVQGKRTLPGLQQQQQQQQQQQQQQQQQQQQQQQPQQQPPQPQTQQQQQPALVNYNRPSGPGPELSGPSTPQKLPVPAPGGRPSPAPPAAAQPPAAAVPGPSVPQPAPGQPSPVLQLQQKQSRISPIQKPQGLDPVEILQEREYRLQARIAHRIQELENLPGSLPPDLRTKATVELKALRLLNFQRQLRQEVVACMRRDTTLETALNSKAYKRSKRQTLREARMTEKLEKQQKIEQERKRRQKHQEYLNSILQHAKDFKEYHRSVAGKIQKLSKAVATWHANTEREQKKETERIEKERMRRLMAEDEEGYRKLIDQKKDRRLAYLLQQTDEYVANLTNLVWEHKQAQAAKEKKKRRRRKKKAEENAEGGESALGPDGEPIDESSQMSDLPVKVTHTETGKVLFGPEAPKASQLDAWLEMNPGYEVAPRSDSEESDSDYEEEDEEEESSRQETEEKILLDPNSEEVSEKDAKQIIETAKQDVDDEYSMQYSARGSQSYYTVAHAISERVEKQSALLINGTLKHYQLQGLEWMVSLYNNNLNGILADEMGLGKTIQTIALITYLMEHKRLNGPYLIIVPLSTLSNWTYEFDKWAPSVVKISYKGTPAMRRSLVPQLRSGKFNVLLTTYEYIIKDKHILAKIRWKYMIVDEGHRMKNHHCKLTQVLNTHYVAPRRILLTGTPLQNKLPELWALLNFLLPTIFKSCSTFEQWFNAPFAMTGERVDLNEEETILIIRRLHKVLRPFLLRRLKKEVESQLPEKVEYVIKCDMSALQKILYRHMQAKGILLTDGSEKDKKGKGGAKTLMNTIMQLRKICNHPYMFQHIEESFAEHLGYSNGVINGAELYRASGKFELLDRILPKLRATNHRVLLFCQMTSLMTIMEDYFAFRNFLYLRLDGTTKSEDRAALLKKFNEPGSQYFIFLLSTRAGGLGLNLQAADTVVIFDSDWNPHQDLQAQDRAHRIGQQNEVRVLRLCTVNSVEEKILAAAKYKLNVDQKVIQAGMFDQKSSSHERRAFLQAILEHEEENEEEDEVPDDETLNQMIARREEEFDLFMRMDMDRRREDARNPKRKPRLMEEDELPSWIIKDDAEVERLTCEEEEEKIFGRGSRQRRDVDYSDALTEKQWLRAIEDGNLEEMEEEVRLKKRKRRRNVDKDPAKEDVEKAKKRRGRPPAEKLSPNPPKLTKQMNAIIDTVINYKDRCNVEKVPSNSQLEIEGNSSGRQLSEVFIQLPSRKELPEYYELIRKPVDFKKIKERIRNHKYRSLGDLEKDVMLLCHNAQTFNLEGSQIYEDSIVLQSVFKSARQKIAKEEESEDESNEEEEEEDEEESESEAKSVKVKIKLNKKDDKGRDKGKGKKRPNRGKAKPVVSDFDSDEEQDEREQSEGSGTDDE
Procedure, shortened: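 ADP-Glo luminescence, after depletion of leftover ATP and conversion of ADP, reported the activity. The 1 h room-temperature reaction held 400 μM ATP, 20 nM salmon sperm DNA and 30 nM BRM in 20 mM Tris pH 8, 20 mM MgCl2, 50 mM NaCl, 0.1% Tween-20, 1 mM DTT.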

BRG-1 = biological target: T2, BRG-1 (Homo sapiens, UniProt P51532); assay: ATPase catalytic activity of BRG-1, ADP-Glo in vitro biochemical assay; conditions: 30 nM BRG-1, 400 μM ATP, read-out: BRG1 IC50
T2 construct: made in house; host or cells: High Five insect cells
T2 sequence (P51532 whole entry): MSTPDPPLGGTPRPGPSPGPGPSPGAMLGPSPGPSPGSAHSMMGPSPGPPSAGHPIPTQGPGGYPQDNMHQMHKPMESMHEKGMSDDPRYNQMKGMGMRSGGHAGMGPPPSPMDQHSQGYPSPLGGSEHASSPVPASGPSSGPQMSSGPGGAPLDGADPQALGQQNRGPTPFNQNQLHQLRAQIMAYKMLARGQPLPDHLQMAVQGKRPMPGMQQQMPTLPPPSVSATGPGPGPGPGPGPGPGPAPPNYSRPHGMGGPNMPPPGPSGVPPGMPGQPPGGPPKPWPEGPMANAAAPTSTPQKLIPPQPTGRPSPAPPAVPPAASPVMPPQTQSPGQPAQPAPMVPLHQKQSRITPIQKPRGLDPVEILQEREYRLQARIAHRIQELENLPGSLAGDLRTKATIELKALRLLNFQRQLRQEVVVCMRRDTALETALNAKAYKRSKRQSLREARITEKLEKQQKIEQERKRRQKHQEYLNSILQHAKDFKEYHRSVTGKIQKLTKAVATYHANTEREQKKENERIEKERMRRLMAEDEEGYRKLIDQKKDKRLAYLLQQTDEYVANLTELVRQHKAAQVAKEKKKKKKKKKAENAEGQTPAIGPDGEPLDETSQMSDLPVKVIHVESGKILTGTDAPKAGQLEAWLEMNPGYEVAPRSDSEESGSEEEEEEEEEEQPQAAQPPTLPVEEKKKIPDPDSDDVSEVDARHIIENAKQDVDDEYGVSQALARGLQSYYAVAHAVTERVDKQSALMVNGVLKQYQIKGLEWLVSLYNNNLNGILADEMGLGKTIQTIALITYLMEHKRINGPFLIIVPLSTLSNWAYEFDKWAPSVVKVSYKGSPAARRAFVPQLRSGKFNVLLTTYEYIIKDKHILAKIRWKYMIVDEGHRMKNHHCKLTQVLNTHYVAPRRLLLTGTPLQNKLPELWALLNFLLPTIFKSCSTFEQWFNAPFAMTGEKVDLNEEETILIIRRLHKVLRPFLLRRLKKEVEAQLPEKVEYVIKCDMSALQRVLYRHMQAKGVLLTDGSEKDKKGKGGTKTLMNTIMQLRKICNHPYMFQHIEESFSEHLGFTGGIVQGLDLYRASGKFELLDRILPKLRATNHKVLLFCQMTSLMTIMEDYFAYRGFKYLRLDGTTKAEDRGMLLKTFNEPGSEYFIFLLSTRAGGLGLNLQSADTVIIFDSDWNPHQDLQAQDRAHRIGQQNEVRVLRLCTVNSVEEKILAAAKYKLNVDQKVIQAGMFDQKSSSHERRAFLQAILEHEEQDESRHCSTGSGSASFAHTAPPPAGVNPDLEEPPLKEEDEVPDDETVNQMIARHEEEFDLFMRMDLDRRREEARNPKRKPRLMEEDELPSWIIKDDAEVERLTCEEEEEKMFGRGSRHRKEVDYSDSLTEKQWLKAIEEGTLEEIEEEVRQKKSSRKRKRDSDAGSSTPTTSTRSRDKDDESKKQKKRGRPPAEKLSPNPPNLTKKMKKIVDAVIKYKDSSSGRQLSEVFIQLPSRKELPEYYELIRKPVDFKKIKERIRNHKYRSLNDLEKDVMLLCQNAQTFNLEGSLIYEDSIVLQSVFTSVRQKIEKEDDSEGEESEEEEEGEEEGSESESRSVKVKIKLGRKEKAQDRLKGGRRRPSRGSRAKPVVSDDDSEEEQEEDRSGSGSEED
Procedure, shortened: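 Once the ATPase reaction finished, leftover ATP was depleted over 40 minutes at room temperature. Generated ADP was next turned back into ATP during a 60-minute room-temperature step. Luciferase-derived light was then measured.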

[1] = ATPase catalytic activity, ADP-Glo

Row | Structure (SMILES) | IC50 (BRM; ADP-Glo ATPase assay) | Ratio* (BRG1 IC50 (μM) divided by BRM IC50 (μM)) (BRM) | IC50 (BRG-1; ADP-Glo ATPase assay) | Ratio* (BRM; ratio BRG1 IC50 / BRM IC50) | IC50 (BRM; [1]) | Ratio* (BRM; ratio of BRG1 IC50 to BRM IC50) | IC50 (BRG-1; [1])
1 | C[C@@]1(c2cccc(-c3ccc4cnc(CNC(=O)c5ccc6c(c5)S(=O)(=O)CCOC6)cc4n3)n2)CC1(F)F [Compound 214] | 331 nM | 10.01 | 3310 nM | – | – | – | –
2 | O=C(NCc1cc2nc(N3CCOc4ccc(C5CCC5)nc43)ccc2cn1)c1ccc2c(c1)S(=O)(=O)CCOC2 [Compound 722] | 8.8 nM | – | 716 nM | 81.47 | – | – | –
3 | CCO[C@@H]1CCOc2c(-c3ccc4cnc(CNC(=O)c5ccc6c(c5)S(=O)(=O)CCOC6)cc4n3)cccc21 [Compound 65] | 16.2 nM | 6.14 | 99.7 nM | – | – | – | –
4 | CC(C)S(=O)(=O)c1cccc(C(=O)NCc2cc3nc(-c4cncc(C5CC5)n4)ccc3cn2)c1 [Compound 296] | 316 nM | 15.84 | 5000 nM | – | – | – | –
5 | O=C(NCc1cc2nc(-c3cccc(C4(F)CCC4)n3)ccc2cn1)c1ccc2c(c1)S(=O)(=O)CCOC2 [Compound 154] | 142 nM | 14.94 | 2130 nM | – | – | – | –
6 | O=C(NCc1cc2nc(N3CCCc4ccc(OCC5CCOC5)cc43)ccc2cn1)c1ccc2c(c1)S(=O)(=O)CCOC2 (centres unmarked) [Compound 759] | 5.3 nM | – | 53.3 nM | 9.97 | – | – | –
7 | COc1cccc2c1CCN2c1ccc2cnc(CNC(=O)c3ccc4c(c3)S(=O)(=O)CCOC4)cc2n1 [Compound 647] | – | – | – | – | 55.9 nM | 6.61 | 370 nM
8 | CO[C@H]1C[C@H]1N(C)c1cccc(-c2ccc3cnc(CNC(=O)c4ccc5c(c4)S(=O)(=O)[C@@H](C)COC5)cc3n2)n1 [Compound 669] | – | – | – | – | 17.1 nM | 18.96 | 324 nM
9 | COc1ccccc1-c1ccc2cnc(CNC(=O)c3ccc4c(c3)S(=O)(=O)CCOC4)cc2n1 [Compound 254] | 54.2 nM | 9.53 | 517 nM | – | – | – | –
10 | COc1cccc(-c2ccc3cnc(CNC(=O)c4ccc5c(c4)S(=O)(=O)CCOC5)cc3n2)n1 [Compound 487] | – | – | – | – | 21.9 nM | 15.66 | 344 nM
11 | CN(c1cccc(-c2ccc3cnc(CNC(=O)c4ccc5c(c4)S(=O)(=O)CCOC5)cc3n2)n1)C1CCOCC1 [Compound 174] | 28.8 nM | 9.24 | 266 nM | – | – | – | –
12 | Cc1ccc(C(=O)NCc2cc3nc(-c4cccc(N5C[C@@H](C)O[C@@H](C)C5)n4)ccc3cn2)cc1S(C)(=O)=O [Compound 195] | 3.7 nM | 8.49 | 31.3 nM | – | – | – | –
13 | O=C(NCc1cc2nc(-c3cncc(C4CC4)n3)ccc2cn1)c1cnc2c(c1)S(=O)(=O)CCCC2 [Compound 230] | 41.6 nM | 9.60 | 399 nM | – | – | – | –
14 | CO[C@H]1C[C@@H]1N(C)c1cccc(-c2ccc3cnc(CNC(=O)c4ccc5c(c4)S(=O)(=O)[C@@H](C)COC5)cc3n2)n1 [Compound 670] | – | – | – | – | 10.1 nM | 8.79 | 88.3 nM
15 | CO[C@@H]1COc2c(-c3ccc4cnc(CNC(=O)c5ccc6c(c5)S(=O)(=O)CCOC6)cc4n3)cccc2N(C)C1 [Compound 614] | – | – | – | – | 95.1 nM | 9.06 | 862 nM
16 | O=C(NCc1cc2nc(N3CCCc4c(OC5COC5)cccc43)ccc2cn1)c1ccc2c(c1)S(=O)(=O)CCOC2 [Compound 555] | – | – | – | – | 4.6 nM | 5.44 | 25 nM
17 | CCOC1CCS(=O)(=O)c2cc(C(=O)NCc3cc4nc(-c5cccc(N6CC(C)OC(C)C6)n5)ccc4cn3)ccc2C1 (centres unmarked) [Compound 485] | – | – | – | – | 13 nM | 14.45 | 189 nM
18 | O=C(NCc1cc2nc(-c3cccc4c3CCCN4CC(F)F)ccc2cn1)c1ccc2c(c1)S(=O)(=O)CCOC2 [Compound 127] | 846 nM | 4.79 | 4050 nM | – | – | – | –
19 | C[C@@H]1CN(c2cccc(-c3ccc4cnc(CNC(=O)c5ccc6c(c5)S(=O)(=O)CCCC6)cc4n3)n2)C[C@H](C)O1 [Compound 91] | 4.8 nM | 3.52 | 17 nM | – | – | – | –
20 | COCCNc1cccc(-c2ccc3cnc(CNC(=O)c4ccc(C(F)F)c(S(C)(=O)=O)c4)cc3n2)n1 [Compound 80] | 176 nM | 11.75 | 2070 nM | – | – | – | –
21 | CO[C@@H]1CN(c2cccc(-c3ccc4cnc(CNC(=O)c5ccc6c(c5)S(=O)(=O)CCOC6)cc4n3)n2)C[C@@H]1F [Compound 333] | – | – | – | – | 17.1 nM | 13.29 | 227 nM
22 | C[C@H]1COCc2ccc(C(=O)NCc3cc4nc(-c5cccc(C6CC6)n5)ccc4cn3)cc2S1(=O)=O [Compound 331] | – | – | – | – | 13.5 nM | 30.98 | 418 nM

Row | Structure (SMILES) | IC50 (BRM; ADP-Glo ATPase assay) | Ratio* (BRG1 IC50 (μM) divided by BRM IC50 (μM)) (BRM) | IC50 (BRG-1; ADP-Glo ATPase assay) | Ratio* (BRM; ratio BRG1 IC50 / BRM IC50) | IC50 (BRM; [1]) | Ratio* (BRM; ratio of BRG1 IC50 to BRM IC50) | IC50 (BRG-1; [1])
23 | O=C(NCc1cc2nc(N3CCCc4ccc([C@@H]5CC5(F)F)nc43)ccc2cn1)c1ccc2c(c1)S(=O)(=O)CCOC2 [Compound 689] | – | – | – | – | 40.2 nM | 21.94 | 882 nM
24 | COc1cc2c(cc1F)CCCN2c1ccc2cnc(CNC(=O)c3ccc4c(c3)S(=O)(=O)CCOC4)cc2n1 [Compound 714] | 54.9 nM | – | 667 nM | – | – | – | –
25 | CO[C@H]1CCN(c2cccc(-c3ccc4cnc(CNC(=O)c5ccc6c(c5)S(=O)(=O)CCOC6)cc4n3)n2)C1 [Compound 201] | 19.4 nM | 9.11 | 177 nM | – | – | – | –
26 | O=C(NCc1cc2nc(N3CCCc4ccc(OCC(F)F)nc43)ccc2cn1)c1ccc2c(c1)S(=O)(=O)CCOC2 [Compound 601] | – | – | – | – | 215 nM | 8.88 | 1910 nM
27 | O=C(NCc1cc2nc(N3CCCc4ccc(Cl)nc43)ccc2cn1)c1ccc2c(c1)S(=O)(=O)CCOC2 [Compound 513] | – | – | – | – | 16.9 nM | 9.70 | 164 nM
28 | C[C@H]1CN(c2cccc(-c3ccc4cnc(CNC(=O)c5ccc6c(c5)S(=O)(=O)CCOC6)cc4n3)n2)C[C@H](C)O1 [Compound 216] | 10.9 nM | 8.63 | 93.7 nM | – | – | – | –
29 | CO[C@@H]1CN(c2cccc(-c3ccc4cnc(CNC(=O)c5ccc6c(c5)S(=O)(=O)CCOC6)cc4n3)n2)C[C@H]1F [Compound 340] | – | – | – | – | 22.2 nM | 13.96 | 309 nM
30 | O=C(NCc1ncc2ccc(N3CCOc4cc(C5CC5)cnc43)cc2n1)c1ccc2c(c1)S(=O)(=O)CCOC2 [Compound 800] | 169 nM | – | 636 nM | 3.77 | – | – | –
31 | CN(C)[C@@H]1CCN(c2cccc(-c3ccc4cnc(CNC(=O)c5ccc6c(c5)S(=O)(=O)CCOC6)cc4n3)n2)CC1(F)F [Compound 79] | 14.6 nM | 7.89 | 116 nM | – | – | – | –
32 | Cc1cnc2c(c1)N(C1CC1)CCN2c1ccc2cnc(CNC(=O)c3ccc4c(c3)S(=O)(=O)CCOC4)cc2n1 [Compound 748] | 12.1 nM | – | 154 nM | 12.75 | – | – | –
33 | O=C(NCc1cc2nc(-c3ccnc([C@H]4CC4(F)F)n3)ccc2cn1)c1ccc2c(c1)S(=O)(=O)CCOC2 [Compound 217] | 61.2 nM | 15.77 | 965 nM | – | – | – | –
34 | COCCN1CCCc2ccc(-c3ccc4cnc(CNC(=O)c5ccc6c(c5)S(=O)(=O)CCOC6)cc4n3)nc21 [Compound 109] | 16.9 nM | 7.52 | 127 nM | – | – | – | –
35 | COc1cc(F)cc2c1CCCN2c1ccc2cnc(CNC(=O)c3ccc4c(c3)S(=O)(=O)CCOC4)cc2n1 [Compound 750] | 4 nM | – | 18.3 nM | 4.62 | – | – | –
36 | O=C(NCc1cc2nc(-c3ccc4c(n3)N(CC(F)F)CC4)ccc2cn1)c1ccc2c(c1)S(=O)(=O)CCOC2 [Compound 119] | 40 nM | 5.53 | 221 nM | – | – | – | –
37 | O=C(NCc1cc2nc(-c3cccc(OCC4CC4)n3)ccc2cn1)c1ccc2c(c1)S(=O)(=O)CCOC2 [Compound 381] | – | – | – | – | 19.4 nM | 12.43 | 241 nM
38 | O=C(NCc1cc2nc(-c3cccc(OC4CC4(F)F)n3)ccc2cn1)c1ccc2c(c1)S(=O)(=O)CCOC2 (centres unmarked) [Compound 427] | – | – | – | – | 47.3 nM | 9.12 | 431 nM
39 | O=C(NCc1cc2nc(N3CCCc4cc(C5CC5)ncc43)ccc2cn1)c1ccc2c(c1)S(=O)(=O)CCOC2 [Compound 725] | 26.8 nM | – | 294 nM | 10.95 | – | – | –
40 | C[C@H]1C[C@H]1c1ccc2c(n1)N(c1ccc3cnc(CNC(=O)c4ccc5c(c4)S(=O)(=O)CCOC5)cc3n1)CCO2 [Compound 831] | 35.2 nM | – | 1160 nM | 33.09 | – | – | –
41 | O=C(NCc1cc2nc(-c3cccc(OCC4CC4(F)F)n3)ccc2cn1)c1ccc2c(c1)S(=O)(=O)CCOC2 (centres unmarked) [Compound 391] | – | – | – | – | 28.7 nM | 15.87 | 456 nM
42 | C[C@@H]1CN(c2cccc(-c3cnc4cnc(CNC(=O)c5ccc6c(c5)S(=O)(=O)CCOC6)cc4c3)n2)C[C@H](C)O1 [Compound 161] | 4.7 nM | 9.62 | 45.2 nM | – | – | – | –
43 | O=C(NCc1cc2nc(N3CCOc4ccc([C@H]5CC5(F)F)nc43)ccc2cn1)c1ccc2c(c1)S(=O)(=O)CCOC2 [Compound 700] | – | – | – | – | 14.5 nM | 52.11 | 758 nM
